Patent US20230286995A1, “METABOLICALLY STABLE PYRIMIDINYL DIHYDROQUINOXALINONES AS TUBULIN POLYMERIZATION INHIBITORS” (UNIVERSITY OF TENNESSEE RESEARCH FOUNDATION, priority 2022, published 2023)
Counter-ions that a name gives are not always drawn. Like-named read-outs stand apart in the source and are kept apart here. Blank lines part the entries; values can stand above or below the compound they belong to.

Key:
A-253 and Detroit 562 = assay: Cytotoxicity in head and neck cancer cell lines; format: cell-based; conditions: Homo sapiens; FIG. 39A; read-out: IC50 values, range over A-253 and Detroit 562
Experimental: A panel of dihydroquinoxalinones were tested in two head and neck cancer cell lines, A-253 and Detroit 562. A-253 cells are a human salivary epidermoid carcinoma cell line, whereas Detroit 562 is a head and neck squamous cell carcinoma (HNSCC). Oral cancer is the most common type of head and neck cancer and more than 90% of oral cancers are either oral or oropharyngeal squamous cell carcinoma (SCC). A major clinical dilemma is chemotherapy efficiency targeted for head and neck squamous cell carcinoma (HNSCC). The inability to successfully complete cancer treatment utilizing a standard surgical approach due to an advanced stage of HNSCC and/or resistance of SCC cells to conventional chemotherapy and/or radiotherapy leads to a continuous search for new compounds with cytostatic activity and minor side effects.
FIGS. 39B and 39C illustrate the graphical representation of the data. […] For example, at treatment levels as low of 0.5 nM, 12k was able to prevent head and neck cancer cell proliferation almost completely, whereas it required 5 nM of 17ya to achieve similar antiproliferation.

RPMI-7951 = assay: Cytotoxicity assay (MTS, 72 h); format: cell-based; conditions: Homo sapiens, Table 1, read-out: IC50 (nM) Melanoma RPMI-7951
MDA-MB-231 = assay: Cytotoxicity assay (MTS, 72 h); format: cell-based; conditions: Homo sapiens
MDA-MB-453 = assay: Cytotoxicity assay (MTS, 72 h); format: cell-based, human
MDA-MB-468 = assay: Cytotoxicity assay (MTS, 72 h); format: cell-based, human; conditions: Table 1, read-out: IC50 (nM) Breast MDA-MB-468
logP = format: physicochemical; conditions: Table 1; method not described
[1] = test system: human melanoma and breast cancer cell lines; assay: Cytotoxicity, all tested cell lines of Table 1; format: cell-based; conditions: melanoma and breast lines of Table 1; for IC50: Homo sapiens, read-out: IC50 values, range over all tested cell lines
A375 = assay: Cytotoxicity assay (MTS, 72 h); conditions: Homo sapiens;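 note: compounds tested from 0.1 nM up to 3 µM in four replicate wells, with absorbance read at 490 nm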
M14 = assay: Cytotoxicity assay (MTS, 72 h); conditions: Homo sapiens
Mia PaCa-2 = assay: Cytotoxicity assay (MTS, 72 h); format: cell-based; conditions: Homo sapiens
PANC-1 = assay: Cytotoxicity assay (MTS, 72 h); format: cell-based; conditions: Homo sapiens
Experimental: Mia PaCa-2 and PANC-1 cells were seeded in 96-well plates at 4000 and 5000 cells per well, respectively.
(§1) Cytotoxicity Assay. […] Each experiment consisted of four replicates.

[2] = test system: melanoma, breast, pancreatic and prostate cancer cell lines; assay: Cytotoxicity of Example 8 compounds; format: cell-based, human
Source text: as §1

PC3 = assay: Cytotoxicity assay (MTS, 72 h); format: cell-based; conditions: Homo sapiens, PC-3; Table 6; read-out: IC50 (nM) Prostate cancer PC3
Source text: as §1

PC3/TxR = assay: Cytotoxicity assay (MTS, 72 h); format: cell-based; conditions: Homo sapiens, Table 6, paclitaxel-resistant, read-out: IC50 (nM) Prostate cancer PC3/TxR
Experimental: Biology. Cell culture and Reagents. […] MIA Paca-2 pancreatic cancer cells were cultured in media also supplemented with 2.5% horse serum. PANC-1 and PC-3 were cultured in RPMI 1640 medium (Gibco, Carlsbad, Calif.) supplemented with 10% FBS and 1% antibiotic/antimycotic mixture. […] For biological experiments, pyrimidine dihydroquinoxalinone derivatives were dissolved in DMSO to create 20 mM stock solutions and stored at −20° C. until use.
as §1

in vitro [3] = conditions: human, liver microsomes
in vitro [4] = conditions: mouse, liver microsomes
A375/TxR = assay: Cytotoxicity assay (MTS, 72 h); format: cell-based; conditions: Homo sapiens, read-out: IC50 ± SEM (nM) A375/TxR
MDA-MB-231/VxR = assay: Cytotoxicity assay (MTS, 72 h); format: cell-based; conditions: Homo sapiens, MDA-MB-231, read-out: IC50 ± SEM (nM) MDA-MB-231/VXR
M14/LCC6MDR1 = assay: Cytotoxicity assay (MTS, 72 h); format: cell-based; conditions: Homo sapiens, read-out: IC50 ± SEM (nM) M14/LCC6MDR1
DU-145/VxR = assay: Cytotoxicity assay (MTS, 72 h); format: cell-based; conditions: Homo sapiens, DU-145, read-out: IC50 ± SEM (nM) DU-145/VXR
[5] = test system: taxane-resistant melanoma, breast, and lung cancer cells; assay: Cytotoxicity, regular and taxane-resistant lines of Table 2; format: cell-based; conditions: Homo sapiens; taxane-resistant melanoma, breast, and lung cancer cells; read-out: IC50 values, range against taxane-resistant cells
[6] = biological target: T1, tubulin protein from bovine brain (Bos taurus, UniProt P81947+Q6B856); assay: Tubulin polymerization assay (FIG. 5A); format: biochemical; conditions: 10 μM, cell-free
T1 construct: tubulin protein from bovine brain origin; purchased Cytoskeleton, Denver, Colo; host or cells: bovine brain
Experimental: Tubulin polymerization reaction was initiated by adding 100 μL of tubulin protein from bovine brain origin (3 mg/ml, Cytoskeleton, Denver, Colo.) into 10 μM of test compounds in general tubulin buffer (80 mM PIPES, 2.0 mM MgCl2, 0.5 mM EGTA, and 1 mM GTP) according to the manufacturer protocol. The reaction kinetics were recorded in every thirty seconds for 1 h at 37° C. and a microplate reader equipped with absorbance settings at 340 nm wavelength was used for this purpose. The experiment was performed in duplicates.

A549/TxR = assay: cells; conditions: Homo sapiens, read-out: IC50 ± SEM (nM) A549/TxR
[7] = MDA-MB-231, read-out: IC50 (nM) Breast MDA-MB-231, Table 1
[8] = Homo sapiens, MDA-MB-453, Table 1, read-out: IC50 (nM) Breast MDA-MB-453
[9] = A-375, read-out: IC50 (nM) Melanoma A375, Table 1
[10] = M14, read-out: IC50 (nM) Melanoma M14
[11] = MDA-MB-231, read-out: IC50 (nM) Breast Cancer MDA-MB-231, Table 6

T1 sequence (P81947 whole entry): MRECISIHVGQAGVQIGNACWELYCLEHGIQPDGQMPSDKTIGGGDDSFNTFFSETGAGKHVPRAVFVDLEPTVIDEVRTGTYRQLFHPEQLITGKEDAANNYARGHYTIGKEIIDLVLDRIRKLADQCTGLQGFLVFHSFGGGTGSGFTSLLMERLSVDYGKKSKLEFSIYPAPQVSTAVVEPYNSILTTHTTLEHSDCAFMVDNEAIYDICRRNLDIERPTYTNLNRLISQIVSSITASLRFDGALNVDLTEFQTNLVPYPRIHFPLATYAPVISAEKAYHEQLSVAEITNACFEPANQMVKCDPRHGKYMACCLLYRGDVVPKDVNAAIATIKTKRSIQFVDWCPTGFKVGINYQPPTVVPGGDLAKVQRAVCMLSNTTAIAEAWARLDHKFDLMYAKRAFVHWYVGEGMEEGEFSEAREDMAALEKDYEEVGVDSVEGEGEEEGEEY
T1 sequence (Q6B856 whole entry): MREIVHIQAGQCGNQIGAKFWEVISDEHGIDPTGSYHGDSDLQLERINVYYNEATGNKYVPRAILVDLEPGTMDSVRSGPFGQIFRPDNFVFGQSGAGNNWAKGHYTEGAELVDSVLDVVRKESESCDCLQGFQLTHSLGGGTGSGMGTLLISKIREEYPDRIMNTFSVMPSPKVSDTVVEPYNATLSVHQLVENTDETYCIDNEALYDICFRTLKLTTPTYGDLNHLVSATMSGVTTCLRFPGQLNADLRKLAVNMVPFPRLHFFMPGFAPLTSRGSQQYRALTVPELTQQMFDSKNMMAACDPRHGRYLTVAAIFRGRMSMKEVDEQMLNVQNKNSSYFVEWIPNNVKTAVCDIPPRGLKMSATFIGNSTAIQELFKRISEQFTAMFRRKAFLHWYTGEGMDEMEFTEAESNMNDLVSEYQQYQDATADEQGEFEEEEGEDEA

Structure (SMILES): CCNc1nc2c(c(N3CC(=O)Nc4cc(OC)ccc43)n1)CCC2 [5v HCl, 4-(2-(ethylamino)-6,7-dihydro-5H-cyclopenta[d]pyrimidin-4-yl)-7-methoxy-3,4-dihydroquinoxalin-2(1H)-one]
IC50 (A-253 and Detroit 562): 0.52 to 3.2 nM

Structure (SMILES): CCNc1nc(N2CC(=O)Nc3cc(OC)ccc32)c2cccnc2n1 [Compound 5u, 4-(2-(ethylamino)pyrido[2,3-d]pyrimidin-4-yl)-7-methoxy-3,4-dihydroquinoxalin-2(1H)-one]
IC50 (RPMI-7951): 4.8 ± 0.8 nM | IC50 (MDA-MB-231; [7]): 6.7 ± 1.2 nM | IC50 (MDA-MB-453; [8]): 4.5 ± 0.9 nM | IC50 (MDA-MB-468): 10.5 ± 1.6 nM | logP (logP): 2.51 | IC50 [1]: 0.4 to 26 nM | IC50 (A375; [9]): 5.8 ± 1 nM | IC50 (M14; [10]): 5.4 ± 0.7 nM

Structure (SMILES): Cc1nc2c(c(N3CC(=O)Nc4cc(OCc5ccccc5)ccc43)n1)CCC2 [Compound 12p, 7-(benzyloxy)-4-(2-methyl-6,7-dihydro-5H-cyclopenta[d]pyrimidin-4-yl)-3,4-dihydroquinoxalin-2(1H)-one]
IC50 (MDA-MB-231; [11]): 423 ± 110 nM | IC50 (Mia PaCa-2; Table 6, cells printed in μM, read-out: IC50 Pancreatic cancer Mia PaCa-2): > 1.25 µM | IC50 (PANC-1; Table 6, cells printed in μM, read-out: IC50 Pancreatic cancer PANC-1): > 1.2 µM | cytotoxic potency [2]: least in potency

Structure (SMILES): COc1ccc2c(c1)NC(=O)CN2c1nc(Cl)nc(C)c1C [Compound 5q, 4-(2-chloro-5,6-dimethylpyrimidin-4-yl)-7-methoxy-3,4-dihydroquinoxalin-2(1H)-one]
IC50 (RPMI-7951): > 1000 nM | IC50 (MDA-MB-231; [7]): > 1000 nM | IC50 (MDA-MB-453; [8]): > 1000 nM | IC50 (MDA-MB-468; Homo sapiens, MDA-MB-468): > 1000 nM | logP (logP): 2.76 | cytotoxic activity [1]: inactive | IC50 (A375; [9]): > 1000 nM | IC50 (M14; [10]): > 1000 nM

half-life at 1 μg/mL (in vitro [3]): 80.3 min | microsomal CLint at 1 μg/mL (in vitro [3]): 8.68 µL/min/mg | half-life at 1 μg/mL (in vitro [4]): 13.6 min | microsomal CLint at 1 μg/mL (in vitro [4]): 51 µL/min/mg
Structure (SMILES): COc1ccc2c(c1)NC(=O)CN2c1nc(NC2CC2)nc2c1CCC2 [Compound 12j, 4-(2-(cyclopropylamino)-6,7-dihydro-5H-cyclopenta[d]pyrimidin-4-yl)-7-methoxy-3,4-dihydroquinoxalin-2(1H)-one]
IC50 (MDA-MB-231; [11]): 2.2 ± 0.4 nM | IC50 (MDA-MB-453; Homo sapiens, MDA-MB-453, Table 6, read-out: IC50 (nM) Breast Cancer MDA-MB-453): 1.1 ± 0.3 nM | IC50 (Mia PaCa-2; Table 6, read-out: IC50 (nM) Pancreatic cancer Mia PaCa-2): 0.0039 ± 0.0006 µM | IC50 (PANC-1; Table 6, read-out: IC50 (nM) Pancreatic cancer PANC-1): 0.0034 ± 0.0006 µM | IC50 (PC3): 0.6 nM | IC50 (PC3/TxR): 0.2 nM | IC50 (A375; A-375, read-out: IC50 (nM) Melanoma Cancer A375, Table 6): ~1.4 nM | IC50 (M14; M14, read-out: IC50 (nM) Melanoma Cancer M14): 1.2 ± 0.3 nM

Structure (SMILES): COc1ccc(N(C)c2nc(C)nc3ccccc23)cc1 [Verubulin, N-(4-methoxyphenyl)-N,2-dimethylquinazolin-4-amine, reference compound]
IC50 (MDA-MB-231; MDA-MB-231, read-out: IC50 ± SEM (nM) MDA-MB-231, Table 2): 1.9 ± 0.4 nM | IC50 (A375/TxR): 0.7 ± 0.1 nM | IC50 (MDA-MB-231/VxR): 2 ± 0.4 nM | IC50 (A375; A-375, read-out: IC50 ± SEM (nM) A375, Table 2): 0.7 ± 0.1 nM | IC50 (M14; M14, read-out: IC50 ± SEM (nM) M14): 1 ± 0.1 nM

Structure (SMILES): COc1ccc(Nc2nc(OC)nc3c2CCC3)c(N)c1 [Compound 20, 4-methoxy-N1-(2-methoxy-6,7-dihydro-5H-cyclopenta[d]pyrimidin-4-yl)benzene-1,2-diamine]
cytotoxic potency [2]: little to no cytotoxic activity

Structure (SMILES): COc1ccc2c(c1)NC(=O)CN2c1nc(Cl)nc2c1COC2 [Compound 5p, 4-(2-chloro-5,7-dihydrofuro[3,4-d]pyrimidin-4-yl)-7-methoxy-3,4-dihydroquinoxalin-2(1H)-one]
IC50 (RPMI-7951): 27.2 ± 3.9 nM | IC50 (MDA-MB-231; [7]): 36.8 ± 4.5 nM | IC50 (MDA-MB-453; Table 1, read-out: IC50 (nM) Breast MDA-MB-453): 19.3 ± 3.5 nM | IC50 (MDA-MB-468): 22.8 ± 4.6 nM | logP (logP): 1.47 | IC50 [1]: 19 to 37 nM | IC50 (A375; [9]): 31.8 ± 4.4 nM | IC50 (M14; [10]): 23.3 ± 3 nM

logP (logP): 1.96
Structure (SMILES): COc1ccc2c(c1)NC(=O)CN2c1cc(C)nc2cccnc12 [Compound 5s, 7-methoxy-4-(2-methyl-1,5-naphthyridin-4-yl)-3,4-dihydroquinoxalin-2(1H)-one]
IC50 (RPMI-7951): 14.4 ± 2.4 nM | IC50 (MDA-MB-231; [7]): 23.9 ± 4.1 nM | IC50 (MDA-MB-453; [8]): 12.9 ± 2.3 nM | IC50 (MDA-MB-468; Homo sapiens, MDA-MB-468): 18.5 ± 4.1 nM | IC50 [1]: 13 to 24 nM | IC50 (A375; [9]): 15 ± 2.1 nM | IC50 (M14; [10]): 18.3 ± 2.9 nM

Structure (SMILES): COc1cc2c(c(OC)c1OC)-c1ccc(OC)c(=O)cc1[C@@H](NC(C)=O)CC2 [Colchicine, reference compound]
IC50 (M14/LCC6MDR1): > 1000 nM

Structure (SMILES): CNC(=O)C(=O)Nc1cc(OC)ccc1Nc1nc(SC)nc2c1CCC2 [Compound 21, N1-(5-methoxy-2-((2-(methylthio)-6,7-dihydro-5H-cyclopenta[d]pyrimidin-4-yl)amino)phenyl)-N2-methyloxalamide]
cytotoxic potency [2]: little to no cytotoxic activity

Structure (SMILES): CCNc1nc(N2CC(=O)Nc3cc(OC)ccc32)c2ncccc2n1 [Compound 5t, 4-(2-(ethylamino)pyrido[3,2-d]pyrimidin-4-yl)-7-methoxy-3,4-dihydroquinoxalin-2(1H)-one]
IC50 (RPMI-7951): 0.8 ± 0.1 nM | logP (logP): 1.72 | IC50 (A375/TxR; Table 2, paclitaxel-resistant): 1.3 nM | IC50 (MDA-MB-231/VxR): 2.9 ± 0.4 nM | IC50 (DU-145/VxR): 1.8 ± 0.4 nM | IC50 [1]: 0.4 to 26 nM | IC50 [5]: 0.3 to 5 nM | effect on microtubule polymerization [6]: significantly inhibited microtubule polymerization | IC50 (A549/TxR): 5.4 ± 1.7 nM
